Counter-ions that a name gives are not always drawn. Like-named read-outs stand apart in the source and are kept apart here.
Tests used:
[1] = tested on: acetylated α-tubulin (AcTub) levels in QBI293 cells; design: method as in PMID 26980057, PMID 33411523; details: cited from earlier work; for Class (cellular phenotype): activity reported in previous studies
[2] = tested on: acetylated α-tubulin (AcTub) levels in QBI293 cells; experiment: QBI293 cell assay of MT stabilization: acetylated α-tubulin ELISA; type: cell-based
Method: (§1) All test compounds were initially screened in the same cell-based (QBI293) assay of MT stabilization used in our previous SAR studies[11],[12] so as to allow direct comparison with literature data. Changes in levels of acetylated α-tubulin (AcTub) and total α-tubulin (α-Tub), relative to vehicle-treated negative control cells, were determined after 4 h of incubation with test compounds at 1 and 10 μM. To account for possible day-to-day differences in the responsiveness of cells to MT-stabilizing treatment, compound-dependent changes in AcTub levels relative to DMSO-treated cells were also normalized to the corresponding changes caused by 100 nM of 5 that was used as a positive control. In addition, docking studies, binding free energy calculations, and in selected cases, molecular dynamic simulations were conducted using an X-ray structure of the vinca and seventh sites (PDB: 5NJH,[10]7CLD[13]). […] For selected compounds, additional studies included testing in the QBI293 cell AcTub assay at additional compound concentrations, and/or evaluation of test compounds for their ability to prevent MT collapse in primary neuron cultures treated with the phosphatase inhibitor, okadaic […] (OA). Finally, cytotoxicity studies in QBI293 and HeLa cells were also conducted for representative examples (Supporting Information).
(§2) Compound-induced changes in acetylated-tubulin and α-tubulin in QBI293 cells or primary mouse or rat neurons were as previously described.[11],[12] […] The plated cells were incubated overnight, after which the medium was aspirated and fresh medium containing vehicle (0.25–0.3% DMSO) or test compound was added. Test compounds were prepared as 4–20 mM stock solutions in 100% DMSO, and these were diluted in culture medium prior to addition to the QBI293 cells. After 4 h incubation, whole-cell extracts were prepared from the QBI293 cells as described[11] and the supernatant fraction from each sample was assessed for protein content by bicinchoninic acid (BCA) assay. The amount of acetyl-tubulin (AcTub) and α-tubulin (αTub) within the cell extract samples was quantified using specific enzyme-linked immunosorbent assays (ELISA), as previously described.[11] Acetyl-tubulin levels were determined in a similar manner in rat or mouse cortical neuron cultures in which embryonic dissociated cortical neurons were plated at 3 × 10^5 cells/well in poly-D-lysine-coated 12-well plates, essentially as previously described.[11] […] Culture homogenates were prepared for the determination of AcTub levels by ELISA as previously described.[11]

[3] = tested on: total α-tubulin (α-Tub) levels in QBI293 cells; experiment: QBI293 cell assay: total α-tubulin ELISA; type: cell-based
Method: as §1, §2

[4] = tested on: total α-tubulin (α-Tub) levels in QBI293 cells; design: method as in PMID 26980057, PMID 33411523; details: 4 h incubation, 10 μM, reported in previous studies; cited from earlier work
[5] = 4 h, 1 uM compound, read-out: AcTub (1uM)
[6] = 4 h, 10 uM compound, read-out: AcTub (10 uM)
[7] = 4 h incubation, 1 μM, read-out: AcTub 1 μM, fold-change compared to vehicle (DMSO)-treated cells
[8] = 4 h incubation, 10 μM, read-out: AcTub 10 μM, fold-change compared to vehicle (DMSO)-treated cells
[9] = 4 h, 1 uM compound, read-out: AlfaTub (1uM)
[10] = 4 h, 10 uM compound, read-out: AlfaTub (10 uM)
[11] = 4 h incubation, 1 μM, read-out: α-Tub 1 μM, fold-change compared to vehicle (DMSO)-treated cells
[12] = 4 h incubation, 10 μM, read-out: α-Tub 10 μM, fold-change compared to vehicle (DMSO)-treated cells

C[C@@H](Nc1c(-c2c(F)cc(F)cc2F)c(Cl)nc2ncnn12)C(C)(C)C [Compound 10]
Class (cellular phenotype) [1]: I

CC(C)[C@H](C)Nc1c(-c2c(F)cc(F)cc2F)c(Cl)nc2ncnn12 [Compound 7]
Class (cellular phenotype) [1]: I

C[C@@H](Nc1c(-c2c(F)cc(C#CCN(C)C)cc2F)c(Cl)nc2ncnn12)C(C)(C)C [Compound 55, (R)-5-Chloro-6-(4-(3-(dimethylamino)prop-1-yn-1-yl)-2,6-difluorophenyl)-N-(3,3-dimethylbutan-2-yl)-[1,2,4]triazolo[1,5-a]pyrimidin-7-amine]
AcTub (1 uM - normalized) ([2]; 1 uM compound): 0.45
AcTub (10 uM - normalized) ([2]; 10 uM compound): 1.43
fold induction at 1 µM [2, 5]: 1.36
fold induction at 10 µM [2, 6]: 4.32
AcTub 1 μM, fold-change compared to positive control compound 5 (100 nM) (in parentheses) ([2]; 4 h incubation, 1 μM): 0.45 fold-change
fold induction at 1 µM [2, 7]: 1.36 ± 0.08
AcTub 10 μM, fold-change compared to positive control compound 5 (100 nM) (in parentheses) ([2]; 4 h incubation, 10 μM): 1.43 fold-change
fold induction at 10 µM [2, 8]: 4.32 ± 0.28
fold induction at 1 µM [3, 9]: 1
fold induction at 10 µM [3, 10]: 0.84
fold induction at 1 µM [3, 11]: 1 ± 0.05
fold induction at 10 µM [3, 12]: 0.87 ± 0.01

CN(C)CCCOc1cc(F)c(-c2c(Cl)nc3ncnn3c2NCC2(C)CC2)c(F)c1 [Compound 28, 5-Chloro-6-(4-(3-(dimethylamino)propoxy)-2,6-difluorophenyl)-N-((1-methylcyclopropyl)methyl)-[1,2,4]triazolo[1,5-a]pyrimidin-7-amine]
AcTub (1 uM - normalized) ([2]; 1 uM compound): 0.53
AcTub (10 uM - normalized) ([2]; 10 uM compound): 0.09
fold induction at 1 µM [2, 5]: 2.81
fold induction at 10 µM [2, 6]: 0.49
AcTub 1 μM, fold-change compared to positive control compound 5 (100 nM) (in parentheses) ([2]; 4 h incubation, 1 μM): 0.53 fold-change
fold induction at 1 µM [2, 7]: 2.81 ± 0.35
AcTub 10 μM, fold-change compared to positive control compound 5 (100 nM) (in parentheses) ([2]; 4 h incubation, 10 μM): 0.09 fold-change
fold induction at 10 µM [2, 8]: 0.49 ± 0.03
fold induction at 1 µM [3, 9]: 0.84
fold induction at 10 µM [3, 10]: 1.1
fold induction at 1 µM [3, 11]: 0.84 ± 0.12
fold induction at 10 µM [3, 12]: 1.1 ± 0.2

Fc1cc(F)c(-c2c(Cl)nc3ncnn3c2NCC2(C(F)(F)F)CC2)c(F)c1 [Compound 14, 5-Chloro-N-((1-(trifluoromethyl)cyclopropyl)methyl)-6-(2,4,6-trifluorophenyl)-[1,2,4]triazolo[1,5-a]pyrimidin-7-amine]
AcTub (1 uM - normalized) ([2]; 1 uM compound): 0.22
AcTub (10 uM - normalized) ([2]; 10 uM compound): 0.34
fold induction at 1 µM [2, 5]: 1.3
fold induction at 10 µM [2, 6]: 2
AcTub 1 μM, fold-change compared to positive control compound 5 (100 nM) (in parentheses) ([2]; 4 h incubation, 1 μM): 0.22 fold-change
fold induction at 1 µM [2, 7]: 1.3 ± 0.09
AcTub 10 μM, fold-change compared to positive control compound 5 (100 nM) (in parentheses) ([2]; 4 h incubation, 10 μM): 0.34 fold-change
fold induction at 10 µM [2, 8]: 2 ± 0.36
fold induction at 1 µM [3, 9]: 1
fold induction at 10 µM [3, 10]: 0.97
fold induction at 1 µM [3, 11]: 1 ± 0.04
fold induction at 10 µM [3, 12]: 0.97 ± 0.09

CC(C)[C@@H](C)Nc1c(-c2c(F)cc(F)cc2F)c(Cl)nc2ncnn12 [Compound 1]
Class (cellular phenotype) [1]: I

C[C@@H](Nc1c(-c2c(F)cc(F)cc2F)c(Cl)nc2ncnn12)C1(C)N=N1 [Compound 63]
AcTub (1 uM - normalized) ([2]; 1 uM compound): 0.11
AcTub (10 uM - normalized) ([2]; 10 uM compound): 0.36
fold induction at 1 µM [2, 5]: 1.42
fold induction at 10 µM [2, 6]: 4.28
fold induction at 1 µM [3, 9]: 0.92
fold induction at 10 µM [3, 10]: 0.89
AcTub 1 μM, fold-change compared to vehicle (DMSO)-treated cells ([1]; 4 h incubation, 1 μM, reported in previous studies): 1.42 ± 0.08 fold-change
Class (cellular phenotype) [1]: I

C[C@H](Nc1c(-c2c(F)cc(OCCCCCO)cc2F)c(Cl)nc2ncnn12)C(F)(F)F [Compound 20, (S)-5-(4-(5-Chloro-7-((1,1,1-trifluoropropan-2-yl)amino)-[1,2,4]triazolo[1,5-a]pyrimidin-6-yl)-3,5-difluorophenoxy)pentan-1-ol]
AcTub (1 uM - normalized) ([2]; 1 uM compound): 0.50
AcTub (10 uM - normalized) ([2]; 10 uM compound): 0.96
fold induction at 1 µM [2, 5]: 3.73
fold induction at 10 µM [2, 6]: 7.12
AcTub 1 μM, fold-change compared to positive control compound 5 (100 nM) (in parentheses) ([2]; 4 h incubation, 1 μM): 0.50 fold-change
fold induction at 1 µM [2, 7]: 3.73 ± 0.22
AcTub 10 μM, fold-change compared to positive control compound 5 (100 nM) (in parentheses) ([2]; 4 h incubation, 10 μM): 0.96 fold-change
fold induction at 10 µM [2, 8]: 7.12 ± 0.29
fold induction at 1 µM [3, 9]: 0.37
fold induction at 10 µM [3, 10]: 0.28
fold induction at 1 µM [3, 11]: 0.43 ± 0.07
fold induction at 10 µM [3, 12]: 0.36 ± 0.03

C[C@H](Nc1c(-c2c(F)cc(F)cc2F)c(Cl)nc2ncnn12)C(C)(C)C [Compound 12]
Class (cellular phenotype) [1]: I

C[C@H](Nc1c(-c2c(F)cc(F)cc2F)c(Cl)nc2ncnn12)C1CC1 [Compound 16, (S)-5-Chloro-N-(1-cyclopropylethyl)-6-(2,4,6-trifluorophenyl)-[1,2,4]triazolo[1,5-a]pyrimidin-7-amine]
AcTub (1 uM - normalized) ([2]; 1 uM compound): 0.10
AcTub (10 uM - normalized) ([2]; 10 uM compound): 0.15
fold induction at 1 µM [2, 5]: 0.96
fold induction at 10 µM [2, 6]: 1.56
AcTub 1 μM, fold-change compared to positive control compound 5 (100 nM) (in parentheses) ([2]; 4 h incubation, 1 μM): 0.10 fold-change
fold induction at 1 µM [2, 7]: 0.96 ± 0.06
AcTub 10 μM, fold-change compared to positive control compound 5 (100 nM) (in parentheses) ([2]; 4 h incubation, 10 μM): 0.15 fold-change
fold induction at 10 µM [2, 8]: 1.56 ± 0.06
fold induction at 1 µM [3, 9]: 0.95
fold induction at 10 µM [3, 10]: 0.97
fold induction at 1 µM [3, 11]: 0.95 ± 0.02
fold induction at 10 µM [3, 12]: 0.97 ± 0.02

C[C@@H](Nc1c(-c2c(F)cc(OCCCN(C)C)cc2F)c(Cl)nc2ncnn12)C(C)(C)C [Compound 24, (R)-3-(4-(5-Chloro-7-((3,3-dimethylbutan-2-yl)amino)-[1,2,4]triazolo[1,5-a]pyrimidin-6-yl)-3,5-difluorophenoxy)-N,N-dimethylpropan-1-aminium Formate]
cellular AcTub at higher (30 μM) concentration ([2]; 4 h, 30 μM): further concentration-dependent decrease in cellular AcTub
total α-Tub at higher (30 μM) concentration ([3]; 4 h, 30 μM): without a reduction of total α-Tub

C#Cc1cc(F)c(-c2c(Cl)nc3ncnn3c2N[C@H](C)C(C)C)c(F)c1 [Compound 34, (R)-5-Chloro-6-(4-ethynyl-2,6-difluorophenyl)-N-(3-methylbutan-2-yl)-[1,2,4]triazolo[1,5-a]pyrimidin-7-amine]
AcTub (1 uM - normalized) ([2]; 1 uM compound): 0.39
AcTub (10 uM - normalized) ([2]; 10 uM compound): 0.88
fold induction at 1 µM [2, 5]: 3.56
fold induction at 10 µM [2, 6]: 8.02
AcTub 1 μM, fold-change compared to positive control compound 5 (100 nM) (in parentheses) ([2]; 4 h incubation, 1 μM): 0.39 fold-change
fold induction at 1 µM [2, 7]: 3.56 ± 0.27
AcTub 10 μM, fold-change compared to positive control compound 5 (100 nM) (in parentheses) ([2]; 4 h incubation, 10 μM): 0.88 fold-change
fold induction at 10 µM [2, 8]: 8.02 ± 0.25
fold induction at 1 µM [3, 9]: 0.98
fold induction at 10 µM [3, 10]: 1.03
fold induction at 1 µM [3, 11]: 0.98 ± 0.002
fold induction at 10 µM [3, 12]: 1.03 ± 0.008

C[C@@H](Nc1c(-c2c(F)cc(OCCCN(C)C)cc2F)c(Cl)nc2ncnn12)C1(C)N=N1 [Compound 66]
AcTub (1 uM - normalized) ([2]; 1 uM compound): 1.68
AcTub (10 uM - normalized) ([2]; 10 uM compound): 0.07
fold induction at 1 µM [2, 5]: 21.7
fold induction at 10 µM [2, 6]: 0.93
fold induction at 1 µM [3, 9]: 0.73
fold induction at 10 µM [3, 10]: 1.01
α-Tub 10 μM, fold-change compared to vehicle (DMSO)-treated cells [4]: 1.01 ± 0.05 fold-change

C[C@H](Nc1c(-c2c(F)cc(C#CCCN(C)C)cc2F)c(Cl)nc2ncnn12)C(F)(F)F [Compound 44, (S)-5-Chloro-6-(4-(4-(dimethylamino)but-1-yn-1-yl)-2,6-difluorophenyl)-N-(1,1,1-trifluoropropan-2-yl)-[1,2,4]triazolo[1,5-a]pyrimidin-7-amine]
AcTub (1 uM - normalized) ([2]; 1 uM compound): 2.01
AcTub (10 uM - normalized) ([2]; 10 uM compound): 1.17
fold induction at 1 µM [2, 5]: 10.9
fold induction at 10 µM [2, 6]: 6.33
AcTub 1 μM, fold-change compared to positive control compound 5 (100 nM) (in parentheses) ([2]; 4 h incubation, 1 μM): 2.01 fold-change
fold induction at 1 µM [2, 7]: 10.9 ± 0.24
AcTub 10 μM, fold-change compared to positive control compound 5 (100 nM) (in parentheses) ([2]; 4 h incubation, 10 μM): 1.17 fold-change
fold induction at 10 µM [2, 8]: 6.33 ± 0.22
fold induction at 1 µM [3, 9]: 0.77
fold induction at 10 µM [3, 10]: 0.93
fold induction at 1 µM [3, 11]: 0.77 ± 0.04
fold induction at 10 µM [3, 12]: 0.93 ± 0.03

Reference: PMC9841533, “Microtubule-Stabilizing 1,2,4-Triazolo[1,5-a]pyrimidines as Candidate Therapeutics for Neurodegenerative Disease: Matched Molecular Pair Analyses and Computational Studies Reveal New Structure–Activity Insights” (Journal of Medicinal Chemistry, 2022)
